In ChEMBL document CHEMBL1145498, “A systematic interaction map of validated kinase inhibitors with Ser/Thr kinases” (Proc Natl Acad Sci U S A, 2007):

What was measured:
[1] = molecular target: Glycogen synthase kinase-3 beta (Homo sapiens, UniProt P49841)
[2] = molecular target: Casein kinase I isoform gamma-3 (Homo sapiens) (UniProt Q9Y6M4)
[3] = molecular target: Cyclin-dependent kinase 2 (Homo sapiens, UniProt P24941)
[4] = molecular target: TRAF2 and NCK-interacting protein kinase (Homo sapiens) (UniProt Q9UKE5)
[5] = molecular target: Calcium/calmodulin-dependent protein kinase type II subunit alpha (Homo sapiens) (UniProt Q9UQM7)
[6] = molecular target: Dual specificity protein kinase CLK2 (Homo sapiens) (UniProt P49760)
[7] = molecular target: Dual specificity protein kinase CLK3 (Homo sapiens) (UniProt P49761)
[8] = molecular target: T1, Lymphokine-activated killer T-cell-originated protein kinase (Homo sapiens) (UniProt Q96KB5)
T1 sequence (whole entry): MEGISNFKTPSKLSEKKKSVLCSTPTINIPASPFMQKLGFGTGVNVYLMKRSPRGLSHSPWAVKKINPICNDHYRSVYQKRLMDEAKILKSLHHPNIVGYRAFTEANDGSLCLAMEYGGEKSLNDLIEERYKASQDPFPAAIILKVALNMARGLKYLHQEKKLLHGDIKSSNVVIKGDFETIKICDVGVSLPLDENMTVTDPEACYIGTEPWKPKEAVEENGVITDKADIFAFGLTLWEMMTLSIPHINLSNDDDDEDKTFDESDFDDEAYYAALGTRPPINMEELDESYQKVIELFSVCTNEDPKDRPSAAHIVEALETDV

[9] = molecular target: Serine/threonine-protein kinase OSR1 (Homo sapiens) (UniProt O95747)
[10] = molecular target: Death-associated protein kinase 3 (Homo sapiens) (UniProt O43293)
[11] = molecular target: Casein kinase I isoform gamma-2 (Homo sapiens) (UniProt P78368)
[12] = molecular target: Cyclin-dependent kinase 6 (Homo sapiens) (UniProt Q00534)
[13] = molecular target: Serine/threonine-protein kinase PAK 6 (Homo sapiens) (UniProt Q9NQU5)
[14] = molecular target: Mitogen-activated protein kinase 6 (Homo sapiens) (UniProt Q16659)
[15] = molecular target: Calcium/calmodulin-dependent protein kinase type 1D (Homo sapiens) (UniProt Q8IU85)
[16] = molecular target: 5'-AMP-activated protein kinase catalytic subunit alpha-2 (Homo sapiens) (UniProt P54646)
[17] = molecular target: Casein kinase I isoform gamma-1 (Homo sapiens) (UniProt Q9HCP0)
[18] = molecular target: Dual specificity protein kinase CLK1 (Homo sapiens) (UniProt P49759)
[19] = molecular target: Ribosomal protein S6 kinase alpha-3 (Homo sapiens) (UniProt P51812)
[20] = molecular target: T2, Mitogen-activated protein kinase kinase kinase 5 (Homo sapiens) (UniProt Q99683)
T2 sequence (whole entry): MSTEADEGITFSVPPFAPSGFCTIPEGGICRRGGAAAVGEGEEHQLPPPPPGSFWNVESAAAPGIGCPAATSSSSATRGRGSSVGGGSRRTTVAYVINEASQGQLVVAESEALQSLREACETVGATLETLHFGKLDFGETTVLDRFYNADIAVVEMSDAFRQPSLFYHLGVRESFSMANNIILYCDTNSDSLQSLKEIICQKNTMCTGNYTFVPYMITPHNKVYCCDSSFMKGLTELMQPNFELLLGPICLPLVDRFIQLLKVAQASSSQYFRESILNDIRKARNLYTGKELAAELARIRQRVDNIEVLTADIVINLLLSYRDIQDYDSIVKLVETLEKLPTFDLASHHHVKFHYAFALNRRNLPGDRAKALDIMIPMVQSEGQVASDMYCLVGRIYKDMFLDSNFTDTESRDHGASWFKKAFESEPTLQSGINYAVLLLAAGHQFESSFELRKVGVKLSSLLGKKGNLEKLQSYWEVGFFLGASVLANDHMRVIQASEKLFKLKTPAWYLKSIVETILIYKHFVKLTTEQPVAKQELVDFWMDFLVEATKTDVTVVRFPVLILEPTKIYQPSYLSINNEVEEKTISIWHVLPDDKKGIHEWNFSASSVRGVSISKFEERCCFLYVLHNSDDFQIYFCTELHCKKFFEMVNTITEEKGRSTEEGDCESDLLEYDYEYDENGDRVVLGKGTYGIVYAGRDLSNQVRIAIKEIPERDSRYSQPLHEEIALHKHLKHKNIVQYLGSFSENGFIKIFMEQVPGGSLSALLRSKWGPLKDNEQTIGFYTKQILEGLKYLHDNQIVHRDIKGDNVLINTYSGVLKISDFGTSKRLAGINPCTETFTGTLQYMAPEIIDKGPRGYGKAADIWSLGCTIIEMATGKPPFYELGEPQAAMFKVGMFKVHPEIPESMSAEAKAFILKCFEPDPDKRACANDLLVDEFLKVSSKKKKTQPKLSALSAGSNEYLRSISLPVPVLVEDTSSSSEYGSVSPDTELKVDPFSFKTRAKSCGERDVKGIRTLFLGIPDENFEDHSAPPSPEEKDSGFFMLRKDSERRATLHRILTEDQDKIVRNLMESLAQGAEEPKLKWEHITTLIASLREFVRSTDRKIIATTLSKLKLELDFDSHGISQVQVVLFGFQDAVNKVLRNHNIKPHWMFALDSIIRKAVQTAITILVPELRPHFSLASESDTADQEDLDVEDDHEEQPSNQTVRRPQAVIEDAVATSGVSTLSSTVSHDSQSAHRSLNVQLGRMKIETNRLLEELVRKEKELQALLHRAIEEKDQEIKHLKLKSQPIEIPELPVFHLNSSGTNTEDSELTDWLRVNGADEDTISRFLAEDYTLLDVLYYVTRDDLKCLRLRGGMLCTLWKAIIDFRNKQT

Chain of Serine/threonine-protein kinase PAK 6 (Homo sapiens) (Q9NQU5 whole entry, looked up): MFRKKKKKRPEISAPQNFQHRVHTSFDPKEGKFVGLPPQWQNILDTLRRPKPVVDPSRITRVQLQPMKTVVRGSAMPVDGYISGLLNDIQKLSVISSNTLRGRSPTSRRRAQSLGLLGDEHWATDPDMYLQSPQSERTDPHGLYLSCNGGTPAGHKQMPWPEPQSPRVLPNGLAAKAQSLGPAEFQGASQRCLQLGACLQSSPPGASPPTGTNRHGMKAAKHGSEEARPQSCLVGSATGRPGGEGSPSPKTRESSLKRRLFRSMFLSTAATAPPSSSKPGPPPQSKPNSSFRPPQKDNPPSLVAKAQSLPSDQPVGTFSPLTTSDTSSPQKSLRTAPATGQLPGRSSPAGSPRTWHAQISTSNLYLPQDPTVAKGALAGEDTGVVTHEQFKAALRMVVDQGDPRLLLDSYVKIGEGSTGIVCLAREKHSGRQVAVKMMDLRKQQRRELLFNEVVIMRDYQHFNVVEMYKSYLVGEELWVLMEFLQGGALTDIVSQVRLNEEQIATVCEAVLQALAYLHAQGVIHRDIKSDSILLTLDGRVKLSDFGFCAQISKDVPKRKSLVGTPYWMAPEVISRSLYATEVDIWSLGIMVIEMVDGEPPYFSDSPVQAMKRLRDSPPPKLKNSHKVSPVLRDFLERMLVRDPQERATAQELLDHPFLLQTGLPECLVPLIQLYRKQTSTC
Chain of Casein kinase I isoform gamma-2 (Homo sapiens) (P78368 whole entry, looked up, canonical isoform): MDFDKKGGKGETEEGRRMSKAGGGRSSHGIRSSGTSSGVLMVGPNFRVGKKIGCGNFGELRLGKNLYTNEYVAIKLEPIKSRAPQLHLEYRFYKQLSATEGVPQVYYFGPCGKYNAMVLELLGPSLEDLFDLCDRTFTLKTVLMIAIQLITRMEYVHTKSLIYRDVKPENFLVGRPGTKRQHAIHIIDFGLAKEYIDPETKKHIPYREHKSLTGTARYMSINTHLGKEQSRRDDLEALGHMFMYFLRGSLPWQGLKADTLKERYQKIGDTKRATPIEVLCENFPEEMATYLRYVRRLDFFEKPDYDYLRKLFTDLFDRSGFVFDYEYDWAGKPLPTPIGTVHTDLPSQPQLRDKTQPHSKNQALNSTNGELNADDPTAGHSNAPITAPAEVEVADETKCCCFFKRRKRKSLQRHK
Chain of Casein kinase I isoform gamma-3 (Homo sapiens) (Q9Y6M4 whole entry, looked up, canonical isoform): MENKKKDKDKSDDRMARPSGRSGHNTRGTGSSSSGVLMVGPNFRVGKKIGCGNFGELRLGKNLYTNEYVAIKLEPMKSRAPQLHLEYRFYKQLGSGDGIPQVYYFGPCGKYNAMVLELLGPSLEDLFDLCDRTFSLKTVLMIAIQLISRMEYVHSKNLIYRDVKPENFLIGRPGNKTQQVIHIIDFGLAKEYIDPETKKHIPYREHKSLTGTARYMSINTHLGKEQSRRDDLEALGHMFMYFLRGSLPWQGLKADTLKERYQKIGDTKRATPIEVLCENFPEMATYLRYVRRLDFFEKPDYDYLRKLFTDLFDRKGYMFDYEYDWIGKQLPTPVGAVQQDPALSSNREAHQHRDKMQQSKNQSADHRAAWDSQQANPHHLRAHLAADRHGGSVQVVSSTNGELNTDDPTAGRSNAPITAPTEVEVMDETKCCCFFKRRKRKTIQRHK
Chain of 5'-AMP-activated protein kinase catalytic subunit alpha-2 (Homo sapiens) (P54646 whole entry, looked up, canonical isoform): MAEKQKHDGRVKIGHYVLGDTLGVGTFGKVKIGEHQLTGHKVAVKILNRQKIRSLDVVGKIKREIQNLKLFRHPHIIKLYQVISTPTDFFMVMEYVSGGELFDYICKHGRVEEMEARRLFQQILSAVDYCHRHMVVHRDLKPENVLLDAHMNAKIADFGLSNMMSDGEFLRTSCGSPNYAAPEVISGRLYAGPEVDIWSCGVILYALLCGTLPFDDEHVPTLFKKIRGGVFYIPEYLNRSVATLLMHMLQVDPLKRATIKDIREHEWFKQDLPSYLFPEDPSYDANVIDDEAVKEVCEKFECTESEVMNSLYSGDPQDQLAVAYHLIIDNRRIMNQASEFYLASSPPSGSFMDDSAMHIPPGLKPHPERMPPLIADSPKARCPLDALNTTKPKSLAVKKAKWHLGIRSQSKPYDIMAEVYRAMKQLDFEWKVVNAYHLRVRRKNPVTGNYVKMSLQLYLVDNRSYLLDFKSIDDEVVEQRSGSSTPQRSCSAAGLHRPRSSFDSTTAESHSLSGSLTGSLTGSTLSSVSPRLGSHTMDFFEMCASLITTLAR
Chain of Serine/threonine-protein kinase OSR1 (Homo sapiens) (O95747 2-527 limits assumed): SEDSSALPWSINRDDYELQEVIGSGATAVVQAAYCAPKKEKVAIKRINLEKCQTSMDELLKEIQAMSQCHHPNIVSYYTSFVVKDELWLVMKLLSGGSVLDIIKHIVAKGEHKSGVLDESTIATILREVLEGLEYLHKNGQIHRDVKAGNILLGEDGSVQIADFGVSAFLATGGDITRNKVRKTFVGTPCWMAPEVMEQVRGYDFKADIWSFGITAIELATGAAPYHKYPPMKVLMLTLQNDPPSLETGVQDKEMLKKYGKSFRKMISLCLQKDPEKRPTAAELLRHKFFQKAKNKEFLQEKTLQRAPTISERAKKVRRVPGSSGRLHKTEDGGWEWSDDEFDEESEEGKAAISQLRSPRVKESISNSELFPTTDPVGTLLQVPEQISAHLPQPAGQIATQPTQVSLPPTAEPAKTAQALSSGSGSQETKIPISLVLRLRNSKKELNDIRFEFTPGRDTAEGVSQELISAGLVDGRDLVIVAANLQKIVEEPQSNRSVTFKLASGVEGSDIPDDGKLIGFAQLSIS
Chain of Death-associated protein kinase 3 (Homo sapiens) (O43293 whole entry, looked up, canonical isoform): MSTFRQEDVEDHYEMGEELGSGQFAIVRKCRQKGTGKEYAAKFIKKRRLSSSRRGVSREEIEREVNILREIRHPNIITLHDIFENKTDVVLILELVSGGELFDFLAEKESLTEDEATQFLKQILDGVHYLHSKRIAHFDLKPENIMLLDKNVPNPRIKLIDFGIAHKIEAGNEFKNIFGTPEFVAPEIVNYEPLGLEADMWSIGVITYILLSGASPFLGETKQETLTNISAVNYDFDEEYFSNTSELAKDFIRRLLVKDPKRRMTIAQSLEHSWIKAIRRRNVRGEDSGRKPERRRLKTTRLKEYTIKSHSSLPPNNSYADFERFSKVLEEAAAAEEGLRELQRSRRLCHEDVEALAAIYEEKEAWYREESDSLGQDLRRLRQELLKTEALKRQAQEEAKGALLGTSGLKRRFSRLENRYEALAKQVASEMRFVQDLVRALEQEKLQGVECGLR
Chain of Dual specificity protein kinase CLK3 (Homo sapiens) (P49761 whole entry, looked up): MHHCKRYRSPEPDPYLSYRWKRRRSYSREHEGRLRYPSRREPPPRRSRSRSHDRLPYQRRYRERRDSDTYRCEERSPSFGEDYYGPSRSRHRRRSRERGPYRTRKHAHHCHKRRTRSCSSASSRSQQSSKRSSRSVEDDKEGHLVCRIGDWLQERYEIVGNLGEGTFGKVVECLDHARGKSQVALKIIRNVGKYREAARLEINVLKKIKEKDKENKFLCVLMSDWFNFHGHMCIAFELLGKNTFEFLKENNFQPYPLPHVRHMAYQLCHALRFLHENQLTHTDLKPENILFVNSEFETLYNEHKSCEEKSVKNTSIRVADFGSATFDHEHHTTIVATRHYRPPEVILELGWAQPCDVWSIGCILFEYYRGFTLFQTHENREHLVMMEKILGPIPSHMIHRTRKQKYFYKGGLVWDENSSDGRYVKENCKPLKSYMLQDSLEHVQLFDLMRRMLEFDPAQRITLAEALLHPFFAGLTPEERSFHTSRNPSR
Chain of Mitogen-activated protein kinase 6 (Homo sapiens) (Q16659 whole entry): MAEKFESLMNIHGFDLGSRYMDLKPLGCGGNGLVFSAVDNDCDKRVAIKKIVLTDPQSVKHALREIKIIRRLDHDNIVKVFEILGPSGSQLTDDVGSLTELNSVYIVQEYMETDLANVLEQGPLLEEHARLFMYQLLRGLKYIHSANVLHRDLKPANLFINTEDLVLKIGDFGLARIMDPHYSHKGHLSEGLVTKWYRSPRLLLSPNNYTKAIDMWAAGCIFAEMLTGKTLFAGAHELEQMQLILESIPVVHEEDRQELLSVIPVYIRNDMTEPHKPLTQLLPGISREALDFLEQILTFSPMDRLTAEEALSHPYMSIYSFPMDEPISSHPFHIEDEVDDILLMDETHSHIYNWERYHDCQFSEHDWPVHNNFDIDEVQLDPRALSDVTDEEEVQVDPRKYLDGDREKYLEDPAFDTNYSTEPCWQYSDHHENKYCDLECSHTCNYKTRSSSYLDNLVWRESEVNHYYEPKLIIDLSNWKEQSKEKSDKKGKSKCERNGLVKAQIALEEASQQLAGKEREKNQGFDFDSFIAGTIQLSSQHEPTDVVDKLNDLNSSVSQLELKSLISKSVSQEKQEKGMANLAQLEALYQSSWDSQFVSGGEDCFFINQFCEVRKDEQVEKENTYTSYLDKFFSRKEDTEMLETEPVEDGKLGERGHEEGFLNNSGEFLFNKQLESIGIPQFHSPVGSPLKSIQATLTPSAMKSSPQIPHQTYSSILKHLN
Chain of Casein kinase I isoform gamma-1 (Homo sapiens) (Q9HCP0 whole entry, looked up, canonical isoform): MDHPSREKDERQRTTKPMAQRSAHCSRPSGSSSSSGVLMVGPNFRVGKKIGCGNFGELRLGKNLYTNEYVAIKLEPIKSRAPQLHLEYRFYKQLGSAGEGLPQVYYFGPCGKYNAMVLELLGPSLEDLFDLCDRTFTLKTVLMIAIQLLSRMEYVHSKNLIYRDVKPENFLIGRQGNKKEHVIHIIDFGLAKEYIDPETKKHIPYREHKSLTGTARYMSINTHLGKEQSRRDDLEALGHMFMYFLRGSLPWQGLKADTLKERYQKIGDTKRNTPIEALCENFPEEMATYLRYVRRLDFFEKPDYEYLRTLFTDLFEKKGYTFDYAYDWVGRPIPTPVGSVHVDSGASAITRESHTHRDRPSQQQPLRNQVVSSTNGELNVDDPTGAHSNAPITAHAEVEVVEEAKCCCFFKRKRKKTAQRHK

ΔTm [1] [°C]	ΔTm [2] [°C]	ΔTm [3] [°C]	ΔTm [4] [°C]	ΔTm [5] [°C]	ΔTm [6] [°C]	ΔTm [7] [°C]	ΔTm [9] [°C]	ΔTm [11] [°C]	ΔTm [12] [°C]	ΔTm [13] [°C]	ΔTm [14] [°C]	ΔTm [15] [°C]	ΔTm [16] [°C]	ΔTm [17] [°C]	ΔTm [18] [°C]	ΔTm [19] [°C]	ΔTm [20] [°C]	Compound	ΔTm [8] [°C]	ΔTm [10] [°C]
0.1	0.1	0.4	0.3	-0.3	0	0	2	0.1	-0.4	0.7	0.5	0.4	-0.1	0.4	0.6	0.1	-0.4	Oc1cccc(-c2nc(N3CCOCC3)c3oc4ncccc4c3n2)c1	0.5	0
5	1.1	0.1	1.1	-0.4	0.5	0.3	0.3	0	1.7	0.1	1.3	0.1	0	0.9	0.7	3	0.6	Nc1n[nH]c2nnc(-c3c(-c4ccccc4)nn4ccccc34)cc12	0.2	3.9
11.5	2.7	6.6	5.9	3.9	1.5	2.7	1.7	1.3	3.3	1.7	0.1	1.1	4.5	-0.3	4	5.5	5.7	O=Nc1c(-c2c(O)[nH]c3ccccc23)[nH]c2ccccc12	0.5	1.2
1.9	0.5	0.2	-0.2	0.5	0.8	0.3	0.2	0.7	0.6	-0.4	0.7	0.1	0.2	0.5	1	1.2	0.6	O=c1c(-c2ccc(F)cc2)c(-c2ccncc2)[nH]n1-c1ccc(Cl)cc1	0.8	0.6
11.9	0.4	3	0.8	2.6	5.6	3.5	-0.1	0.3	1.3	4.5	0.3	0.3	1.4	0.5	8.2	8.1	0.3	Cn1cc(C2=C(c3cn(CCCN)c4ccccc34)C(=O)NC2=O)c2ccccc21	-0.8	2.5

Compound	ΔTm [1] [°C]	ΔTm [2] [°C]	ΔTm [3] [°C]	ΔTm [4] [°C]	ΔTm [5] [°C]	ΔTm [6] [°C]	ΔTm [7] [°C]	ΔTm [9] [°C]	ΔTm [11] [°C]	ΔTm [12] [°C]	ΔTm [13] [°C]	ΔTm [14] [°C]	ΔTm [15] [°C]	ΔTm [16] [°C]	ΔTm [17] [°C]	ΔTm [18] [°C]	ΔTm [19] [°C]	ΔTm [20] [°C]	ΔTm [8] [°C]	ΔTm [10] [°C]
Cc1cncc2cccc(S(=O)(=O)N3CCCNC[C@@H]3C)c12	0.6	0.2	0.7	1	1.2	1.8	2.6	0.6	0.6	-0.1	0.7	0	0.9	1.7	0	3	2.4	1.8	1	4.8
NC(=O)c1ccc(-c2nc(-c3ccc4c(c3)OCCO4)c(-c3ccccn3)[nH]2)cc1	0.6	0.8	0.6	-0.6	0.1	-0.3	0.1	-0.1	0.4	0.4	0	-0.1	0	-0.7	0.4	-0.4	-0.1	0.3	-1.4	-0.3
